{"source": "a melting point compilation (Tetko et al.; mined from patent text by program, amines drawn as free bases though some values may be those of a salt)"}
{"units": {"melting point": "°C"}}
{"smiles": "c1ccc(-c2cc(-c3ccccc3)c(N3CCN(c4ncccn4)CC3)nn2)cc1", "melting point": "71 to 74"}
{"smiles": "Cc1ccccc1Oc1cccc(CC(=O)O)c1[N+](=O)[O-]", "melting point": "158 to 160"}
{"smiles": "O=C(O)CCCC/C=C(\\c1cccnc1)c1ccc2c(c1)OCO2", "melting point": "90 to 91"}
{"smiles": "CC(C)=CCNC(=N)N[N+](=O)[O-]", "melting point": "134 to 136"}
{"smiles": "CCCC(CCC)Nc1cc(C(=O)OC)ccc1N1C(=O)CCC1(CO)CO", "melting point": "139 to 140"}
{"smiles": "Cc1ccc(C)c(OCCCC(=O)O)c1", "melting point": "63 to 65"}
{"smiles": "CC(C)(C)OC(=O)N1CCOC(C2=C(C#N)C(c3cccc(C#N)c3Br)c3c[nH]nc3N2)C1", "note": "(configuration not stated)", "melting point": 219}
{"smiles": "CC(Nc1nc(Oc2cccc3[nH]c(=O)c(N)nc23)cc(-c2ccc(C(F)(F)F)cc2)n1)c1ccc(F)cc1", "note": "(configuration not stated)", "melting point": 434}
{"smiles": "CC(C)CCCC(C)C1CC=C2C3=C(CCC21C)C1(C)CCC(C(=O)c2ccncc2)CC1CC3", "note": "(configuration not stated)", "melting point": "129 to 131"}
{"smiles": "CC1=C(C(=O)OCCC#N)C(c2cccc([N+](=O)[O-])c2)C(C(=O)OCCCN2CCC(c3ccccc3)(c3ccccc3)CC2)=C(C)N1", "note": "(configuration not stated)", "melting point": "158 to 160"}
{"smiles": "CCOC(=O)CCCCCN(C)S(=O)(=O)C1=C(C)NC(C)=C(C(=O)OC)C1c1cccc([N+](=O)[O-])c1", "note": "(configuration not stated)", "melting point": "83 to 86"}
{"smiles": "CC(C)(C)OC(=O)Oc1ccc([N+](=O)[O-])cc1", "melting point": "73 to 74.5"}
{"smiles": "CN(C)C(=O)CC1(C)OCCc2c1[nH]c1c3c(ccc21)CCCC3", "note": "(configuration not stated)", "melting point": "176 to 178"}
{"smiles": "CN(C)CCN1C(=O)C(N)C(=O)N(CC2CCCCC2)c2ccccc21", "note": "(configuration not stated)", "melting point": "94 to 95"}
{"smiles": "O=CC1(Br)C2CCC(CC2)C1c1ccccc1", "note": "(configuration not stated)", "melting point": "65 to 66"}
{"smiles": "O=C(CNc1ccc2[nH]c(=O)oc2c1)N1CCC(Cc2ccc(F)cc2)CC1", "melting point": "202 to 205"}
{"smiles": "Cc1ccc(S(=O)(=O)OC[C@@H]2CCCN(C)C2)cc1", "melting point": "74.5 to 81"}
{"smiles": "COc1cc2c(Nc3ccc4cn[nH]c4c3)c(C#N)cnc2cc1OCCN1CCOCC1", "melting point": "133 to 135"}
{"smiles": "N#Cc1c(CNC(=O)c2ccc(-n3cccc3)cc2)nn(-c2ccc(Cl)cc2Cl)c1-c1ccc(Cl)cc1", "melting point": 121}
{"smiles": "O=C(CCCN1CCNC1=O)N1CCC(C2c3ncc(Br)cc3CCc3cc(Cl)cc(Br)c32)CC1", "note": "(single isomer, unassigned; (+))", "melting point": "120 to 123"}
{"smiles": "CN1CCOc2cc(N)ccc2C1=O", "melting point": "169 to 170"}
{"smiles": "Cc1nn(CCBr)c(=O)c2ccccc12", "melting point": "102 to 103"}
{"smiles": "NC1CN(c2c(F)cc3c(=O)c(C(=O)O)cn(C4CC4)c3c2F)CC12OCCO2", "note": "(configuration not stated)", "melting point": "224 to 226"}
{"smiles": "CCCCCCCCCCCCCCCCNc1ccc(C(=O)OCC(O)CO)cc1", "note": "(configuration not stated)", "melting point": 112}
{"smiles": "Cc1nc(-c2cn(CCC3CC3)nn2)sc1C(=O)NCc1cccnc1", "melting point": "124 to 125"}
{"smiles": "COc1cccc([C@H]2O[C@H](CC(=O)Nc3ccc4oc(C(=O)O)c(OCC(=O)O)c4c3)C(=O)N(CC(C)(C)CO)c3ccc(Cl)cc32)c1OC", "melting point": "193 to 196"}
{"smiles": "Fc1cccc2nc(S)sc12", "melting point": 193}
{"smiles": "COc1ccc(Sc2ccc(NC(=N)N)cc2)cc1", "melting point": "140 to 141"}
{"smiles": "COC(=O)c1cc(-c2ccccc2)c(=O)n2ccc3ccc(Cl)cc3c12", "melting point": "169 to 170"}
{"smiles": "CSc1ccc2c(c1)C=C(C(=O)O)C(C(F)(F)F)O2", "note": "(configuration not stated)", "melting point": "166 to 168"}
{"smiles": "NS(=O)(=O)Nc1ccc(N2CCN(c3ccncc3)CC2)cc1", "melting point": "216 to 219"}
{"smiles": "CCCCCc1nc(O)c(-c2ccccc2)s1", "melting point": "128 to 130"}
{"smiles": "Cc1cc(OCc2ccccc2)cc(OCCCC(C)C)c1C(=O)O", "melting point": "83 to 85"}
{"smiles": "CCOC(=O)c1ccc(C=C(C)c2ccc3c(c2)OCCC3(C)C)cc1", "melting point": "48 to 50"}
{"smiles": "CNC(=S)n1nc(-c2ccc(Cl)c3ccccc23)nc1N", "melting point": "270 to 272"}
{"smiles": "CCOC(=O)C(Cc1cnc2ccc(OC)cc2c1)NC(=O)OC(C)(C)C", "note": "(configuration not stated)", "melting point": 127}
{"smiles": "CC(C)(C)OC(=O)NCCCCCC(=O)O", "melting point": "39 to 42"}
{"smiles": "O=c1[nH]ncc2[nH]c(-c3ccc(OC(F)F)c(OC4CC4)c3)c(-c3cn[nH]c3)c12", "melting point": "294 to 297"}
{"smiles": "O=c1[nH]c2cccc(Cl)c2s1", "melting point": "202 to 203"}
{"smiles": "Nc1nc(Sc2ccc(F)cc2)cc(-c2ccccc2)n1", "melting point": "218 to 220"}
{"smiles": "CCC(CC)c1nc(-c2ccncc2)c(-c2ccc(Cl)cc2)n1CC", "melting point": "239 to 242"}
{"smiles": "CC1CCC2(C(=O)O)CCC3(C)C(=CCC4C5(C)CC(O)C(O)C(C)(CO)C5CCC43C)C2C1C", "note": "(configuration not stated)", "melting point": "300 to 310"}
{"smiles": "Cc1nc(Cl)c(C#N)c(C)c1-c1ccccc1", "melting point": "118 to 123"}
{"smiles": "COc1cc(C(=O)OC2CC3C(=O)NC4(C(=O)NS(=O)(=O)C5CC5)CC4C=CCCCCCC(NC(=O)OC(C)(C)C)C(=O)N3C2)n(OC)n1", "note": "(configuration not stated)", "melting point": "149 to 151"}
{"smiles": "CC(C)(C)OC(=O)NCCc1cccc(C#N)n1", "melting point": "79.1 to 80.3"}
{"smiles": "Cn1nc(C(F)(F)F)nc1NCCCCOc1cccc(CN2CCCCC2)c1", "melting point": 70}
{"smiles": "COc1ccc(CNc2nc(N3CCCC3CO)nc(OC)c2C(=O)NCc2ncccn2)cc1Cl", "note": "(configuration not stated)", "melting point": "153 to 154"}
{"smiles": "N#CC(C#N)=C1N(CCCNC2CCCCC2)CCN1CCN1CCCCC1", "melting point": "78 to 80"}
{"smiles": "O=c1ncc(Br)cn1CCCl", "melting point": "185 to 186"}
{"smiles": "Cc1cccc(Nc2ncnc3ccc(OCCBr)cc23)c1", "melting point": "129 to 135"}
{"smiles": "CCCCCCCCCCOc1ccc2cc(C#CC(C)OC(=O)CC)ccc2c1", "note": "(configuration not stated)", "melting point": "74 to 75"}
{"smiles": "CCCCNc1ccc(CCNc2ncnc(CC)c2C(=O)OCC)cc1", "melting point": "65 to 66"}
{"smiles": "O=C(Nc1cc(Cl)c(O)c(Cl)c1)c1ccccc1O", "melting point": "217 to 219"}
{"smiles": "CN1CCOc2ccc(S(=O)(=O)Nc3ccc(CCl)cc3I)cc21", "melting point": "109 to 110"}
{"smiles": "CCC1=C(C)C(=O)NC1C", "note": "(configuration not stated)", "melting point": 83}
{"smiles": "Cc1ccccc1C(=O)Nc1ccc(C(=O)N2CCCC(OCC(=O)O)c3cc(Cl)ccc32)cn1", "note": "(configuration not stated)", "melting point": "220 to 222"}
{"smiles": "Nc1cc(Oc2ccc3c(C(=O)Nc4cccc(C(F)(F)F)c4)cccc3c2)ncn1", "melting point": "243 to 244"}
{"smiles": "O=C(NC1CCN(CCC(O)c2ccc3c(c2)OCCO3)CC1)c1ccccc1", "note": "(configuration not stated)", "melting point": "193 to 197"}
{"smiles": "CCCCCC(NC(C)C)=C1C(=O)ON=C1C", "melting point": "99 to 101"}
{"smiles": "Cc1cc(C)c2c(c1C)OC1(CCN(Cc3ccccc3)CC1)C2c1ccc(C(C)C)cc1", "note": "(configuration not stated)", "melting point": "125 to 128"}
{"smiles": "CC(O)Cc1c2ccccc2cc2ccccc12", "note": "(configuration not stated)", "melting point": "105 to 107"}
{"smiles": "CS(=O)(=O)NCCCn1c(CCCOc2ccccc2)nc2c(N)nc3ccccc3c21", "melting point": "176 to 178"}
{"smiles": "O=Nc1c(O)cc(N2CCCCC2)c2oc3ccccc3c12", "melting point": "181 to 185"}
{"smiles": "COc1ccc(Nc2ccc(O)cc2)c(C(C)=O)c1", "melting point": "118 to 119"}
{"smiles": "O=C(Cl)c1cnc(O)c(Cl)c1", "melting point": "> 250"}
{"smiles": "CCCOc1cc(C=CC(=O)N2CCN(c3ccc(NC(=N)c4cccs4)cc3)CC2)cc(OCCC)c1O", "melting point": "72 to 73"}
{"smiles": "Cc1c(NC(=O)CC(C)(C)C)cc2c(c1C)OC(C)(C)C2Nc1ccccc1", "note": "(configuration not stated)", "melting point": "151 to 152"}
{"smiles": "BrCc1ccc2c(-c3ccccc3)onc2c1", "melting point": "127 to 128"}
{"smiles": "O=S1(=O)NC(C2CCCCC2)Nc2ccc(-c3ccccc3F)cc21", "note": "(configuration not stated)", "melting point": "249 to 250"}
{"smiles": "O=S(=O)(c1ccc(F)cc1)N1CCCC1c1ccc(F)c(Cl)c1", "note": "(racemic)", "melting point": 116}
{"smiles": "COc1ccc2oc(S(=O)(=O)c3ccc(=O)[nH]n3)cc2c1", "melting point": "222 to 223"}
{"smiles": "COc1ccc(-c2cc(CO)c(=O)n(Cc3ccc(Cl)cc3)n2)cc1F", "melting point": 165}
